Measurements: patent publication US20220002411A1, “METHODS FOR TREATING IMMUNE RELATED OCULAR DISORDERS” (LEGEND MEDICAL-RIMONCI VISION TECHNOLOGY INCUBATION LIMITED, priority 2019, published 2022)

Test system: glaucoma mice (high intraocular pressure, C57BL/6J)
Experiment: Glaucoma mouse model induced by intraocular injection of polystyrene microparticles (RGC and axon damage)
Format: in vivo, C57BL/6J mice
Details: 2 μl once a week at 0.2 μg/ml intravitreal; observed after 8 weeks; compared to IgG injected mice / controls
Procedure: Glaucoma mouse model. Two glaucoma mice models were used in the following experiments. In the first model, high intraocular pressure was induced in adult C57BL/6J mice by injecting polystyrene microparticles. First, mice were anesthetized by intraperitoneal injection of a mixture of ketamine (120 mg/kg) and xylazine (12 mg/kg). Then, a small puncture in the center of the right cornea of the mouse was incised with a 30 G needle (BD, USA). Then, 3 to […] of polystyrene particles of 15 μm diameter (Invitrogen, Oregon, USA) were injected at a 5×10^6/ml concentration into the right anterior chamber of the eye by a glass micro-injector. Left eyes were used as controls, by injecting […] of PBS into the left anterior chamber in a similar manner
Treatment with immune checkpoint inhibitors. […]
Pathologic assessments. After mice were sacrificed, optic nerve and retinal patches were taken to assess optic nerve damage. The optic nerve was fixed overnight with Karnovsky solution. Transverse sections of the optic nerve were obtained 2 mm after the eyeball and observed by electron microscopy (EM410, Philips). For retinal patches the eyeball was fixed with 4% paraformaldehyde overnight. Retinal patches and frozen sections were taken. Retinal ganglion cells (RGCs) were labeled with beta 3 tubulin (Invitrogen) and recorded using a confocal laser microscope (Olympus FV1000). […]

## Nc1ncnc2c1ncn2[C@@H]1O[C@H](CO)[C@@H](O)[C@H]1O [adenosine]
  RGCs loss (beta 3 tubulin staining): decreased RGCs loss
